Legend:
DRN 5-HT neurons [1] = experiment: Extracellular single-unit recordings of DRN 5-HT neuron mean firing rate in anaesthetized rats; format: in vivo, rat; details: prucalopride 2.5 mg/kg, RS 67333 1.5 mg/kg; for enhancement of DRN 5-HT neuron mean firing rate vs control: s.c. osmotic minipumps; for increase of DRN 5-HT neuron firing rate with respect to controls: subacute i.p., 30 min before recordings
Description: In a second part of the study, the selective 5-HT4 agonists prucalopride (Briejer et al., 2001) and RS 67333 (Eglen et al., 1995) were administered either subacutely (i.e. 30 min before the beginning of recordings), or continuously through the use of osmotic minipumps during 3 or 21 days. The selective 5-HT4 antagonist GR 125487 (Gale et al., 1994) was also used to confirm the involvement of 5-HT4 receptors in the effects of the agonists. Successive single-cell extracellular recording tracks were then performed along the DRN of anaesthetized rats. This set of experiments was performed in order to globally assess the effect of such treatments on the mean activity of 5-HT neurons.
Pharmacological treatments. All the 3 different 5-HT4 pharmacological agents were diluted in a solution of physiological saline (NaCl 0.9%), and administered in a dose range known to induce significant binding on 5-HT4 sites (Lucas and Debonnel, 2002; Lamirault and Simon, 2001; Porras et al., 2002). In subacute experiments, prucalopride, RS 67333 or their vehicle were administered i.p. 30 min. before the beginning of recordings. For chronic treatments (both 3 and 21 days), prucalopride, RS 67333 or their vehicle were delivered through osmotic minipumps (Alza, Palo Alto, Calif.) inserted subcutaneously. Electrophysiological recordings were performed with the minipumps in place. […] In a separate set of experiments, the 5-HT4 antagonist GR 125487 was tested in animals treated for 3 days with either prucalopride or RS 67333. Two DRN tracks were first performed, then GR 125487 was administered i.v. (via a lateral vein of the tail) and 2-3 additional tracks were performed, starting 30 min. after the injection. All drug dosages refer to the free base.
Extracellular recordings of DRN 5-HT neurons. Recordings were performed using single-barreled glass micropipettes. Electrodes were filled with a 2 M NaCl solution saturated with Fast Green FCF, resulting in an impedance of 2-5 MΩ. Rats were anaesthetized with chloral hydrate (400 mg/kg, i.p.) and placed in a stereotaxic frame. A burr hole was drilled on the midline 1 mm anterior to lambda. DRN 5-HT neurons were encountered over a distance of 1 mm starting immediately below the ventral border of the Sylvius aqueduct. These neurons were identified using the classical criteria: a slow (0.5-2.5 Hz) and regular firing rate and long-duration (0.8-1.2 ms) positive action potentials (Aghajanian, 1978). In each animal, four to five successive descents were performed along the DRN, and a total of 10-16 cells was recorded. At the end of the experiments, a 25 μA cathodal current was passed through the recording electrode to leave a Fast Green deposit at the recording site. Animals were sacrificed with an i.v. overdose of chloral hydrate, and the brain removed. The site of recording was verified under microscope immediately after experiments.
Statistical analysis. In each experimental group, data were expressed as means±S.E.M. of all the recorded neurons, unless otherwise specified. The effects of the different 5-HT4 agonist administrations on the firing activity of DRN 5-HT neurons was assessed using one-way ANOVAs, followed by the post-hoc Dunnett's test when significant. The influence of GR 125487 on the effect of a 3-day treatment with prucalopride or RS 67333 was assessed using two-way ANOVAs followed by the post-hoc Tukey's test. In all cases, p<0.05 was chosen as the criterion of significance.

[2] = system: CREB phosphorylation in the hippocampus; experiment: CREB and pCREB immunoreactivities in hippocampal tissue after 3-day treatment; format: in vivo, rat; details: 3 days, prucalopride 2.5, RS 67333 1.5 mg/kg/day; for pCREB/CREB ratio in hippocampal tissue: control 0.196±0.02
Description: Drugs and Chemicals. […] All compounds were diluted in distilled water. All drug dosages refer to the free base. […] BrdU treatments consisted of two administrations per day (50 mg/kg, i.p. each, 8 h interval), starting from the day of minipump insertion until day 2 post-surgery.

[3] = Forced swimming test (FST); format: in vivo, rat; details: for change of total time of immobility in FST: Example 3, single i.p. 30 min before test, citalopram or paroxetine 10 mg/kg; for change of total time of immobility in FST / time of immobility in FST: prucalopride 2.5 mg/kg, RS 67333 1.5 mg/kg; for time of immobility in FST: 4 min observation, i.p. 30 min before test, control 88.2±7.2
From the text: The “forced swimming test” (FST) is a behavioural test for rodents, which predicts the efficacy of antidepressant drugs (Porsolt et al., 1977; Lucki, 1997). […] The widespread use of this model is largely a result of its ease of use, reliability across laboratories and ability to detect a broad spectrum of antidepressant agents. The test is based on the observation that rats, following initial escape-oriented movements (climbing and swimming), develop an immobile posture when placed in an inescapable cylinder of water. If they are replaced in the same testing apparatus 24 h later, they resume this immobile posture quickly. The immobility is thought to reflect either a failure of persistence in escape-directed behavior (i.e. behavioral despair) or the development of passive behavior that disengages the animal from active forms of coping with stressful stimuli. If antidepressant treatments are given between the two exposures, the subjects will actively persist engaging in escape-directed behaviors for longer periods of time than after vehicle treatment. This will be reflected by a reduction of immobility time, and by an increase of climbing attempts. […] The combination effect of a particular 5-HT4 agonist and a SSRI may be evaluated using the FST model.
Experiments were carried out in male Sprague-Dawley rats (Charles River, St Constant, Québec). We used the FST as previously described (Porsolt et al., 1977). Briefly, the rats experienced a pretest session followed 24 hours later by a test session. For both the pretest and the test sessions, conducted under low illumination (12 lx), the rats were placed in a plastic cylindrical tank (50 cm high by 20 cm in diameter) filled with water at […], with a depth of 40 cm, for which the hind limbs could not reach the tank floor. In all experiments, the pretest was carried out for 15 min and the test for 5 min in the same tank but only the last 4 min were analyzed. Following either pretest or test sessions, rats were dried with a towel and kept warm for 30 min before returning in their home cage. A digital camera recorded on line animal's behavior during the FST, and both time of immobility and climbing attempts were counted. Citalopram hydrobromide (10 mg/kg, i.p.) or paroxetine (10 mg/kg, i.p.) and prucalopride hydrochloride (2.5 mg/kg, i.p.) or RS 67333 hydrochloride (1.5 mg/kg, i.p.) were administered simultaneously 30 minutes before the test session. Animals were divided into 4 groups: vehicle/vehicle, 5-HT4 agonist/vehicle, vehicle/SSRI and 5-HT4 agonist/SSRI. For each compound, distilled water was used as the vehicle. All drug dosages refer to the free base.
Behavioral experiments. We used the FST as previously described (Porsolt et al., 1977). Briefly, rats experienced a pre-test session followed 24 hours later by a test session. For both the pre-test and the test sessions, conducted under low illumination (12 lx), the animals were placed in a plastic cylindrical tank (50 cm high by 20 cm in diameter) filled with water at […], with a depth of 40 cm, for which the hind limbs could not reach the tank floor. In all experiments, the pre-test was carried out for 15 min and the test for 5 min in the same tank but the last 4 min only were analyzed. Prucalopride (2.5 mg/kg, i.p.) and RS 67333 (1.5 mg/kg, i.p.) were administered 30 min before the test session. Following either pre-test or test sessions, rats were dried with a towel and kept warm for 30 min before returning in their home cage. A camera coupled with a computer recorded on line animal behavior during the FST through a specialized digital interface (Videotrack, ViewPoint, Lyon, France). This interface underscored on line the subtraction of video frames. Immobility time in FST was derived from the number of frames (every 40 ms) being below a predefined threshold over FST duration.

DRN 5-HT neurons [4] = details: cited from earlier work; for enhancement of DRN 5-HT neuron mean firing rate: Lucas et al., 2005
[5] = acute prucalopride 1000 μg/kg i.v., Lucas and Debonnel, 2002

Row | Compound | enhancement of DRN 5-HT neuron mean firing rate vs control (DRN 5-HT neurons [1]; 3-day continuous treatment) | enhancement of DRN 5-HT neuron mean firing rate vs control (DRN 5-HT neurons [1]; 21-day continuous treatment) | increase of DRN 5-HT neuron firing rate with respect to controls (DRN 5-HT neurons [1]) [%] | pCREB/CREB ratio in hippocampal tissue [2] | change of total time of immobility in FST [3] | time of immobility in FST ([3]; Example 6) [s] | increase of climbing in FST ([3]; Example 6, RS 67333 1.5 mg/kg i.p.) | enhancement of DRN 5-HT neuron mean firing rate (DRN 5-HT neurons [4]) | increase of pCREB/CREB ratio vs control [2] | increase of DRN 5-HT activity in responder neurons (DRN 5-HT neurons [4]; [5]) | share of 5-HT neurons responding ("responders") (DRN 5-HT neurons [4]; [5]) [%]
1 | CCCCN1CCC(CCC(=O)c2cc(Cl)c(N)cc2OC)CC1 [RS 67333, 1-(4-amino-5-chloro-2-methoxyphenyl)-3-(1-n-burtl-4-piperidinyl)-1-propanone] | 79% | 59% | 66 | 0.373±0.07 | very similar effect | 42.7 ± 4.9 | +94% | 70% | – | – | –
2 | COCCCN1CCC(NC(=O)c2cc(Cl)c(N)c3c2OCC3)CC1 [prucalopride] | +50% | +36% | 40 | 0.302±0.07 | −54% | 43.4 ± 3.5 | – | 40-45% | +54% | around 100% | 47

— patent US20090170899A1, “Stimulators of 5-HT4 receptors and uses thereof” (priority 2004, published 2009)
